The source made the active and inactive calls. The rule behind the calls is not given here.
Legend:
H9c2 [1] = assay: Cardioprotective activity in H2O2 induced myocardial injury in rat H9c2 cells assessed as effect on SOD level at upto 8 uM by q-PCR analysis; format: functional, cell-based
H9c2 [2] = assay: Cardioprotective activity in H2O2 induced myocardial injury in rat H9c2 cells assessed as effect on P62 level at upto 8 uM by q-PCR analysis; format: functional, cell-based
Mus musculus [3] = assay: Cardioprotective activity against myocardial ischemia/reperfusion induced C57BL/6J mouse model assessed as reduction in myocardial infarction area at 10 mg/kg (reference value: 72.19%); format: functional; design: scale not given: the % may be the effect or the level left
MGC-803 [4] = assay: Induction of apoptosis in human MGC-803 cells assessed as early apoptotic cells at 1 uM measured after 48 hrs by Annexin V-EGFP and PI staining based flow cytometry analysis (reference value: 0.66%); format: functional
H9c2 [5] = assay: Cardioprotective activity in H2O2 induced myocardial injury in rat H9c2 cells assessed as cell viability by MTT assay; format: functional, cell-based; details: dose <= 8.0 µM
[6] = Cmax in male Sprague-Dawley rat at 7 mg/kg,iv measured upto 8 hrs by UPLC-MS/MS analysis; format: ADME, organism-based; details: in vivo
MGC-803 [7] = assay: Induction of apoptosis in human MGC-803 cells assessed as early apoptotic cells at 2 uM measured after 48 hrs by Annexin V-EGFP and PI staining based flow cytometry analysis (reference value: 0.66%); format: functional
H9c2 [8] = assay: Cardioprotective activity in H2O2 induced myocardial injury in rat H9c2 cells assessed as appearance of defined nuclear boundaries at 2 to 8 uM; format: functional, cell-based; details: dose 2-8 µM
[9] = Tmax in male Sprague-Dawley rat at 7 mg/kg,po measured upto 8 hrs by UPLC-MS/MS analysis; format: ADME, organism-based; details: in vivo
Mus musculus [10] = assay: Cardioprotective activity against myocardial ischemia/reperfusion induced C57BL/6J mouse model assessed as reduction in myocardial infarction area at 2.5 mg/kg (reference value: 72.19%); format: functional; design: scale not given: the % may be the effect or the level left
MGC-803 [11] = assay: Induction of apoptosis in human MGC-803 cells assessed as late apoptotic cells at 2 uM measured after 48 hrs by Annexin V-EGFP and PI staining based flow cytometry analysis (reference value: 3.16%); format: functional
H9c2 [12] = assay: Cardioprotective activity in H2O2 induced myocardial injury in rat H9c2 cells assessed as downregulation of IL-1 beta expression; format: functional, cell-based; details: dose <= 8.0 µM
PC-3 = assay: Antiproliferative activity against human PC-3 cells assessed as inhibition of cell growth by MTT assay
Mus musculus [13] = assay: Cardioprotective activity against myocardial ischemia/reperfusion induced C57BL/6J mouse model assessed as reduction in IL-18 expression at 2.5 to 10 mg/kg; format: functional, organism-based; details: dose 2.5-10 mg/kg
MGC-803 [14] = assay: Induction of apoptosis in human MGC-803 cells assessed as necrotic cells at 0.5 uM measured after 48 hrs by Annexin V-EGFP and PI staining based flow cytometry analysis (reference value: 3.90%); format: functional
MGC-803 [15] = assay: Induction of apoptosis in human MGC-803 cells assessed as early apoptotic cells at 0.5 uM measured after 48 hrs by Annexin V-EGFP and PI staining based flow cytometry analysis (reference value: 0.66%); format: functional
TE-1 = assay: Antiproliferative activity against human TE-1 cells assessed as inhibition of cell growth by MTT assay
H9c2 [16] = assay: Protection against H2O2 induced myocardial cell injury in rat H9c2 cells at 10 uM pretreated for 24 hrs followed by H2O2 exposure and measured after 1.5 hrs (reference value: 17.91 to 57.32%); format: functional; details: time 25.5 hrs
BGC-823 = assay: Antiproliferative activity against human BGC-823 cells assessed as inhibition of cell growth by MTT assay
[17] = AUClast in male Sprague-Dawley rat at 7 mg/kg,iv measured upto 8 hrs by UPLC-MS/MS analysis; format: ADME, organism-based; details: in vivo
[18] = target: T1, Protein deacetylase HDAC6 (Mus musculus) (UniProt Q9Z2V5); assay: In vivo inhibition of HDAC6 in C57BL/6 mouse xenografted with MGC-803 cells assessed as effect on acetylated H3 level at 25 to 50 mg/kg, ip by Western blot analysis; format: functional, organism-based; details: dose 25-50 mg/kg
T1 sequence (whole entry): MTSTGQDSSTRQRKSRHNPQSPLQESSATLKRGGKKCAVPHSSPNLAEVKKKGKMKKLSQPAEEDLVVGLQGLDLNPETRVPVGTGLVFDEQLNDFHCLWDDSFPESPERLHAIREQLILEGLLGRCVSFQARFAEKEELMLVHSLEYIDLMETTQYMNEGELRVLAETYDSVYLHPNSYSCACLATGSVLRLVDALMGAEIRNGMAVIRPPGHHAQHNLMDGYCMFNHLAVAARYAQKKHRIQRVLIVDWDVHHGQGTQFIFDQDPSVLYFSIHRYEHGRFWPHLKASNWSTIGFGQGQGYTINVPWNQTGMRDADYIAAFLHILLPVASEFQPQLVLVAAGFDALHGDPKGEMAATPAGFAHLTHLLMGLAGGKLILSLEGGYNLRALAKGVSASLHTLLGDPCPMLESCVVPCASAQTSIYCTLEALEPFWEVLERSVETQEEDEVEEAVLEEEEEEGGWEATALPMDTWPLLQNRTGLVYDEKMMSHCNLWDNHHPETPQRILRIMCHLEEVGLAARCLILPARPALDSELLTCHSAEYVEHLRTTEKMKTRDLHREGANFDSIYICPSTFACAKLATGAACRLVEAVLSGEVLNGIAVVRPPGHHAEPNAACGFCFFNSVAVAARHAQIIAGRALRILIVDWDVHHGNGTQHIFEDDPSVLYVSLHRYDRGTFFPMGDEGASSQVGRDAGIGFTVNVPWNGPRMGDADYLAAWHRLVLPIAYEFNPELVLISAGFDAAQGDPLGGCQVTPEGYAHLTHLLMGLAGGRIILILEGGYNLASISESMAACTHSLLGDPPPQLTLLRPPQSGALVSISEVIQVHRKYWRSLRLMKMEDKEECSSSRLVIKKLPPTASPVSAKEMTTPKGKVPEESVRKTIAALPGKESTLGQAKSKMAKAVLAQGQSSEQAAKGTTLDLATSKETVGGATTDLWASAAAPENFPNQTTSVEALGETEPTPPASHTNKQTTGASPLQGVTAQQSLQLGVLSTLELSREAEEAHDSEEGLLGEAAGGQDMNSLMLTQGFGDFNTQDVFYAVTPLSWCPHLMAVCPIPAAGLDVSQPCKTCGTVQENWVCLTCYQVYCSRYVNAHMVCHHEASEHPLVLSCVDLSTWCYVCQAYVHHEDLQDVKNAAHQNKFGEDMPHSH

[19] = Half life in male Sprague-Dawley rat at 7 mg/kg,po measured upto 8 hrs by UPLC-MS/MS analysis; format: ADME, organism-based; details: in vivo
MGC-803 [20] = assay: Induction of apoptosis in human MGC-803 cells assessed as viable cells at 1 uM measured after 48 hrs by Annexin V-EGFP and PI staining based flow cytometry analysis (reference value: 92.3%); format: functional; details: read-out: Activity
[21] = target: T1, Protein deacetylase HDAC6 (Mus musculus); assay: In vivo inhibition of HDAC6 in C57BL/6 mouse xenografted with MGC-803 cells assessed as effect on acetylated tubulin level at 25 to 50 mg/kg, ip by Western blot analysis; format: functional, organism-based; details: dose 25-50 mg/kg
[22] = Cmax in male Sprague-Dawley rat at 7 mg/kg,po measured upto 8 hrs by UPLC-MS/MS analysis; format: ADME, organism-based; details: in vivo

O=C(NO)c1ccc(CNC(=O)c2cc(-c3ccc(F)cc3)cn3ccnc23)cc1
Activity (H9c2 [1]): inactive | Activity (H9c2 [2]): inactive | Activity (Mus musculus [3]): 37.64% | Activity (MGC-803 [4]): 0.48% | Activity (H9c2 [5]): Active | Cmax [6]: 807 ng/mL | Activity (MGC-803 [7]): 0.7% | Activity (H9c2 [8]): Active | Tmax [9]: 1 h | Activity (Mus musculus [10]): 59.66% | Activity (MGC-803 [11]): 24.2% | Activity (H9c2 [12]): Dose-Dependent Effect | IC50 (PC-3): > 10 µM | Activity (Mus musculus [13]): Active | Activity (MGC-803 [14]): 5.97% | Activity (MGC-803 [15]): 0.52% | IC50 (TE-1): 4.5 µM | Activity (H9c2 [16]): 66.13% | IC50 (BGC-823): 2.25 µM | AUC(0-t) at 8 h [17]: 740 ng·h/mL | inhibition [18]: Active | half-life [19]: 3.58 h | viability at 1 µM (MGC-803 [20]): 77.2% | inhibition [21]: Active | Cmax [22]: 27.5 ng/mL

— ChEMBL document CHEMBL5550215, “Discovery of Novel Imidazo[1,2-a]pyridine-Based HDAC6 Inhibitors as an Anticarcinogen with a Cardioprotective Effect” (J Med Chem, 2024)
